How the values were obtained:
Type in all cases: in vivo
[1] = test system: Beet Armyworm (Spodoptera exigua, LAPHEG); assay: Bioassay on Beet Armyworm (BAW), 128-well diet tray assay; details: Species BAW (Beet Armyworm), read-out: BAW (Biological Results, rating)
Summary of the method: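 Test molecule dissolved in acetone-water 90:10 is applied at 50 μg/cm^2 onto artificial diet and allowed to dry. Second instar larvae, one to five per well, are then added, and trays are vented and kept at 25° C. for five to seven days before mortality is scored.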

[2] = test system: Cabbage Looper (Trichoplusia ni, TRIPNI); assay: Bioassay on Cabbage Looper (CL), 128-well diet tray assay; details: Trichoplusia ni; Species CL (Cabbage Looper); read-out: CL (Biological Results, rating)
Summary of the method: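 Percent mortality, averaged across eight replicate wells, was scored after five to seven days at 25° C. under a 14:10 light-dark cycle. Each well held one to five second instar larvae on artificial diet treated at 50 μg/cm^2 with compound from 90:10 acetone-water, allowed to dry before infestation.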

[3] = test system: Yellow Fever Mosquito (Aedes aegypti, AEDSAE); assay: Bioassay on Yellow Fever Mosquito (YFM), 96-well plate larval assay; details: Species YFM (Yellow Fever Mosquito)
Summary of the method: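 Compound stocks at 4000 ppm in DMSO were diluted with 90:10 water/acetone, and 15 μL aliquots were dispensed into six replicate plates. About 1-day-old larvae in liver-powder water were added per well. Plates were covered and held at room temperature for 3 days before each well was scored for mortality.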

Structure (SMILES) | pest or weed control at 50 µg/cm2 [1] | pest or weed control at 50 µg/cm2 [2] | YFM (Biological Results, rating) [3]
CNc1ccc(NC(=O)c2cc(NC(=O)[C@H]3[C@H](c4cc(Cl)cc(Cl)c4)C3(Cl)Cl)cc(Cl)c2Cl)cc1 (relative stereo) [F249, trans-2,3-Dichloro-5-(2,2-dichloro-3-(3,5-dichlorophenyl)cyclopropane-1-carboxamido)-N-(4-(methylamino)phenyl)benzamide] | 50 to 100% | 50 to 100% | A (80-100)
COC(=O)C(O)(c1ccc(NC(=O)c2cc(NC(=O)[C@H]3[C@H](c4cc(Cl)cc(Cl)c4)C3(Cl)Cl)ccc2Cl)c(C)c1)C(F)(F)F (relative stereo) [F257, Methyl 2-(4-(2-chloro-5-(trans)-(2,2-dichloro-3-(3,5-dichlorophenyl)cyclopropane-1-carboxamido)benzamido)-3-methylphenyl)-3,3,3-trifluoro-2-hydroxypropanoate] | 50 to 100% | 50 to 100% | A (80-100)
C=C(c1ccc(NC(=O)c2cc(NC(=O)[C@H]3[C@H](c4cc(Cl)cc(Cl)c4)C3(Cl)Cl)ccc2Cl)c(C)c1)C(F)(F)F (relative stereo) [F258, 2-Chloro-5-(trans)-(2,2-dichloro-3-(3,5-dichlorophenyl)cyclopropane-1-carboxamido)-N-(2-methyl-4-(3,3,3-trifluoroprop-1-en-2-yl)phenyl)benzamide] | 50 to 100% | 50 to 100% | B (More than 0-Less than 80)
O=C(Nc1ccccc1)c1cc(NC(=O)[C@H]2[C@H](c3ccc(F)c(Cl)c3)C2(Cl)Cl)ccc1Cl (relative stereo) [F259, trans-2-Chloro-5-(2,2-dichloro-3-(3-chloro-4-fluorophenyl)cyclopropane-1-carboxamido)-N-phenylbenzamide] | 50 to 100% | 50 to 100% | A (80-100)
CC(=O)Nc1ccc(NC(=O)c2cc(NC(=O)[C@H]3[C@H](c4ccc(F)c(Cl)c4)C3(Cl)Cl)ccc2Cl)cc1 (relative stereo) [F260, trans-N-(4-Acetamidophenyl)-2-chloro-5-(2,2-dichloro-3-(3-chloro-4-fluorophenyl)cyclopropane-1-carboxamido)benzamide] | 50 to 100% | 50 to 100% | A (80-100)
CNc1ccc(NC(=O)c2cc(NC(=O)[C@H]3[C@H](c4ccc(F)c(Cl)c4)C3(Cl)Cl)ccc2Cl)cc1 (relative stereo) [F261, trans-2-Chloro-5-(2,2-dichloro-3-(3-chloro-4-fluorophenyl)cyclopropane-1-carboxamido)-N-(4-(methylamino)phenyl)benzamide] | 50 to 100% | 50 to 100% | A (80-100)
Cc1cc(NC(=O)OC(C)(C)C)ccc1NC(=O)c1cccc(NC(=O)[C@H]2[C@H](c3cc(Cl)c(Cl)c(Cl)c3)C2(Cl)Cl)c1 (relative stereo) [F262, trans-tert-Butyl (4-(3-(2,2-dichloro-3-(3,4,5-trichlorophenyl)cyclopropane-1-carboxamido)benzamido)-3-methylphenyl)carbamate] | 50 to 100% | 50 to 100% | B (More than 0-Less than 80)
Cc1cc(NC(=O)OC(C)(C)C)ccc1NC(=O)c1cccc(NC(=O)[C@H]2[C@H](c3cc(Cl)cc(Cl)c3)C2(Cl)Cl)c1 (relative stereo) [F263, trans-tert-Butyl (4-(3-(2,2-dichloro-3-(3,5-dichlorophenyl)cyclopropane-1-carboxamido)benzamido)-3-methylphenyl)carbamate] | 50 to 100% | 50 to 100% | B (More than 0-Less than 80)
Cc1cc(N)ccc1NC(=O)c1cccc(NC(=O)[C@H]2[C@H](c3cc(Cl)c(Cl)c(Cl)c3)C2(Cl)Cl)c1 (relative stereo) [F264, trans-N-(4-Amino-2-methylphenyl)-3-(2,2-dichloro-3-(3,4,5-trichlorophenyl)cyclopropane-1-carboxamido)benzamide] | 50 to 100% | 50 to 100% | A (80-100)
Cc1cc(N)ccc1NC(=O)c1cccc(NC(=O)[C@H]2[C@H](c3ccc(Cl)c(Cl)c3)C2(Cl)Cl)c1 (relative stereo) [F265, trans-N-(4-Amino-2-methylphenyl)-3-(2,2-dichloro-3-(3,4-dichlorophenyl)cyclopropane-1-carboxamido)benzamide] | 50 to 100% | 50 to 100% | A (80-100)
Cc1cc(N)ccc1NC(=O)c1cccc(NC(=O)[C@H]2[C@H](c3cc(Cl)cc(Cl)c3)C2(Cl)Cl)c1 (relative stereo) [F266, trans-N-(4-Amino-2-methylphenyl)-3-(2,2-dichloro-3-(3,5-dichlorophenyl)cyclopropane-1-carboxamido)benzamide] | 50 to 100% | 50 to 100% | A (80-100)
N#Cc1cc(F)ccc1NC(=O)c1cccc(NC(=O)[C@H]2[C@H](c3cc(Cl)c(Cl)c(Cl)c3)C2(Cl)Cl)c1 (relative stereo) [F267, trans-N-(2-cyano-4-fluorophenyl)-3-(2,2-dichloro-3-(3,4,5-trichlorophenyl)cyclopropane-1-carboxamido)benzamide] | 50 to 100% | 50 to 100% | B (More than 0-Less than 80)
N#Cc1cc(F)ccc1NC(=O)c1cccc(NC(=O)[C@H]2[C@H](c3ccc(Cl)c(Cl)c3)C2(Cl)Cl)c1 (relative stereo) [F268, trans-N-(2-Cyano-4-fluorophenyl)-3-(2,2-dichloro-3-(3,4-dichlorophenyl)cyclopropane-1-carboxamido)benzamide] | 50 to 100% | 50 to 100% | A (80-100)
O=C(Nc1ccc(F)cc1)c1cc(NC(=O)[C@H]2[C@H](c3ccc(Br)c(Cl)c3)C2(Cl)Cl)ccc1Cl (relative stereo) [F270, 5-(trans-3-(4-Bromo-3-chlorophenyl)-2,2-dichlorocyclopropane-1-carboxamido)-2-chloro-N-(4-fluorophenyl)benzamide] | 50 to 100% | 50 to 100% | A (80-100)
N#Cc1cc(F)ccc1NC(=O)c1cccc(NC(=O)[C@H]2[C@H](c3cc(Cl)cc(Cl)c3)C2(Cl)Cl)c1 (relative stereo) [F271, trans-N-(2-Cyano-4-fluorophenyl)-3-(2,2-dichloro-3-(3,5-dichlorophenyl)cyclopropane-1-carboxamido)benzamide] | 50 to 100% | 50 to 100% | A (80-100)
Cc1cc(F)ccc1NC(=O)c1cccc(NC(=O)[C@H]2[C@H](c3cc(Cl)cc(Cl)c3)C2(Cl)Cl)c1 (relative stereo) [F272, trans-3-(2,2-Dichloro-3-(3,5-dichlorophenyl)cyclopropane-1-carboxamido)-N-(4-fluoro-2-methylphenyl)benzamide] | 50 to 100% | 50 to 100% | A (80-100)

Reference: patent publication US10219516B2, “Molecules having pesticidal utility, and intermediates, compositions, and processes, related thereto” (priority 2015, dated 2019)
